From PMC5915836, “Chiral probes for α1-AGP reporting by species-specific induced circularly polarised luminescence” (Chemical Science, 2018)

Assays:
[1] = molecular target: T1, bovine α1-AGP (α1-acid glycoprotein) (Bos taurus, UniProt Q3SZR3); assay: competitive displacement of [EuL^[…]], Eu emission; type: binding; design: unit not given here; conditions: pH 7.40, 298 K; competitive with [EuL^1]
T1 construct: gene ORM1
T1 sequence (Q3SZR3 19-202): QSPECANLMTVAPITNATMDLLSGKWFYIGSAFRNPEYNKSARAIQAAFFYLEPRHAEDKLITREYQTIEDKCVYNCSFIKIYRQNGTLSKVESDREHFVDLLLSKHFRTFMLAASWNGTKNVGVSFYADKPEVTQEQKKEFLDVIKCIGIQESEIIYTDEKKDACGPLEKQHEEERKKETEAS

[2] = molecular target: T2, human α1-AGP (α1-acid glycoprotein); conditions: pH 7.40, 298 K; competitive with [EuL^1]
T2 construct: gene ORM1

Bupivacaine [1]: 6.4
Bupivacaine [2]: 5.6
Compound: CCCCN1CCCCC1C(=O)Nc1c(C)cccc1C (centres unmarked) [bupivacaine]
